Laboratory results taken from patent US9987278B2, “Pharmaceutical composition for treating FLT3 mutation-positive cancer, mutant FLT3 inhibitor and uses thereof” (FUJIFILM Corporation, priority 2014, dated 2018).
Read-outs that look alike come from different tables or passages of the source.

Legend:
[1] = target: mutant FLT3 protein (FLT3 D835Y) (Homo sapiens (Human), UniProt P36888, D835Y); test: Mutant FLT3 (FLT3 D835Y) enzyme inhibition assay; type: biochemical; conditions: ATP 15 μmol/L, read-out: IC50 value for an enzymatic activity of a mutant FLT3 protein
[2] = test system: 32D FLT3 D835V cells; test: Cell growth assay, 32D FLT3 D835V; type: cell-based; conditions: Mus musculus, 48 h, read-out: GI50 value for growth of FLT3 protein-expressing 32D cells
Method: (§1) After the virus-containing culture supernatant was added to the mouse hematopoietic precursor cell line 32D cells in the presence of 10 μg/mL polybrene, and the cells were cultured in the presence of 0.5 ng/mL mouse IL-3.
(§2) Individual cells were seeded onto a 96-well plate (Becton, Dickinson and Company) at a density of 1000 to 10000 cells/well, and the cell culture was started at 37° C. in the presence of 5% CO2. On the next day, the compound diluted in 3-fold common ratio was added to each well, followed by further culturing for 2 days. Then, in order to evaluate the cell viability, a CellTiter 96 AQueous One SolutionReagent was added to each well according to the Promega Corporation's protocol, followed by culturing for 1 hour. […] In a case where the absorbance is insufficient, the absorbance was measured after performing the culturing for another 1 to 2 hours.

[3] = test system: 32D FLT3 D835Y cells; test: Cell growth assay, 32D FLT3 D835Y; type: cell-based; conditions: Mus musculus, 48 h, read-out: GI50 value for growth of FLT3 protein-expressing 32D cells
Method: as §1, §2

[4] = test system: 32D FLT3 D835Ins cells; test: Cell growth assay, 32D FLT3 D835Ins; type: cell-based; conditions: Mus musculus, 48 h, read-out: GI50 value for growth of FLT3 protein-expressing 32D cells
Method: as §1, §2

[5] = test system: 32D FLT3/FL cells; test: Cell growth assay, FLT3/FLT3 ligand-coexpressing 32D cell line; type: cell-based; conditions: Mus musculus, 48 h, read-out: GI50 value for growth of FLT3 protein-expressing 32D cells
Method: RPMI1640 and DMEM were purchased from Life Technologies or SIGMA. The 32D cells were obtained from RIKEN Bioresource Center, and cultured in the presence of 5% CO2 at 37° C. using an RPMI1640 medium containing 1 ng/mL mouse IL-3, 10% fetal bovine serum (FBS), 100 U/mL penicillin and […] streptomycin. The PLAT-E cells were kindly provided by Dr. Kitamura Toshio of Tokyo University and cultured in a DMEM medium containing 1 μg/mL puromycin, 10 μg/mL blasticidin S, 10% FBS, 100 U/mL penicillin and […] streptomycin. […] A pGEM-T vector, FuGENE6 and CellTiter 96 AQueous One Solution Cell Proliferation Assay were purchased from Promega Corporation.
as §2

[6] = test system: 32D FLT3 D835H cells; test: Cell growth assay, 32D FLT3 D835H; type: cell-based; conditions: Mus musculus, 48 h, read-out: GI50 value for growth of FLT3 protein-expressing 32D cells
Method: as §1, §2

[7] = test system: 32D FLT3 Y842C cells; test: Cell growth assay, 32D FLT3 Y842C; type: cell-based; conditions: Mus musculus, 48 h, read-out: GI50 value for growth of FLT3 protein-expressing 32D cells
Method: as §1, §2

[8] = test system: 32D FLT3 D835N cells; test: Cell growth assay, 32D FLT3 D835N; type: cell-based; conditions: Mus musculus, 48 h, read-out: GI50 value for growth of FLT3 protein-expressing 32D cells
Method: as §1, §2

[9] = test system: 32D FLT3 D835E cells; test: Cell growth assay, 32D FLT3 D835E; type: cell-based; conditions: Mus musculus, 48 h, read-out: GI50 value for growth of FLT3 protein-expressing 32D cells
Method: as §1, §2

[10] = test system: 32D FLT3 Y842H cells; test: Cell growth assay, 32D FLT3 Y842H; type: cell-based; conditions: Mus musculus, 48 h, read-out: GI50 value for growth of FLT3 protein-expressing 32D cells
Method: as §1, §2

[11] = FLT3 D835V, 2 days with compound
[12] = FLT3 D835Y, 2 days with compound
[13] = FLT3 D835Ins (I836 to leucine and aspartic acid), 2 days with compound
[14] = FLT3 D835H, 2 days with compound
[15] = FLT3 Y842C, 2 days with compound
[16] = FLT3 D835N, 2 days with compound
[17] = FLT3 D835E, 2 days with compound
[18] = FLT3 Y842H, 2 days with compound

Row | Structure (SMILES) | IC50 [1] [nM] | other results
1 | C=CC(=O)NCC(=O)Nc1cccc(CNC(=O)c2cnc(NCCc3ccncc3)nc2NCCC)c1 [Compound 1] | 1 to 10 | 
2 | C=CC(=O)NCC(=O)Nc1cccc(NC(=O)c2cnc(NCCc3ccncc3)nc2NCCC)c1 [Compound 2] | < 1 | 
3 | C=CC(=O)NCC(=O)Nc1ccccc1CNC(=O)c1cnc(NCCc2ccncc2)nc1NCCC [Compound 3] | 1 to 10 | 
4 | C=CC(=O)NCC(=O)Nc1cc(Cl)cc(NC(=O)c2cnc(NCCc3ccncc3)nc2NCCC)c1 [Compound 4] | 1 to 10 | 
5 | CCCNc1nc(NCCc2ccncc2)ncc1C(=O)Nc1cccc(NC(=O)CNC(=O)/C=C/CN(C)C)c1 [Compound 5] | < 1 | 
6 | C=CC(=O)NCCOc1cccc(NC(=O)c2cnc(NCCc3ccncc3)nc2NCCC)c1 [Compound 6] | 1 to 10 | 
7 | C=CC(=O)NCC(=O)NCCCNC(=O)c1cnc(NCCc2ccncc2)nc1NCCC [Compound 7] | < 1 | 
8 | C=CC(=O)N[C@H](C)C(=O)Nc1cccc(NC(=O)c2cnc(NCCc3ccncc3)nc2NCCC)c1 [Compound 8] | 1 to 10 | 
9 | C=CC(=O)NC(C)(C)C(=O)Nc1cccc(NC(=O)c2cnc(NCCc3ccncc3)nc2NCCC)c1 [Compound 9] | < 1 | 
10 | C=CC(=O)N(C)CC(=O)Nc1cccc(NC(=O)c2cnc(NCCc3ccncc3)nc2NCCC)c1 [Compound 10] | < 1 | 
11 | C=CC(=O)NCC(=O)N(C)c1cccc(NC(=O)c2cnc(NCCc3ccncc3)nc2NCCC)c1 [Compound 11] | 1 to 10 | 
12 | CCCNc1nc(NCCc2ccncc2)ncc1C(=O)Nc1cccc(NC(=O)CNC(=O)/C=C/CN2CCN(C)CC2)c1 [Compound 12] | 1 to 10 | 
13 | CCCNc1nc(NCCc2ccncc2)ncc1C(=O)Nc1cccc(NC(=O)CNC(=O)/C=C/CN2CCOCC2)c1 [Compound 13] | 1 to 10 | 
14 | CCCNc1nc(NCCc2ccncc2)ncc1C(=O)Nc1cccc(NC(=O)CNC(=O)/C=C/CN2CCN(CCO)CC2)c1 [Compound 14] | < 1 | 
15 | C=CC(=O)NCCNc1cccc(NC(=O)c2cnc(NCCc3ccncc3)nc2NCCC)c1 [Compound 15] | 1 to 10 | 
16 | C=CC(=O)N[C@@H](C)C(=O)Nc1cccc(NC(=O)c2cnc(NCCc3ccncc3)nc2NCCC)c1 [Compound 16] | < 1 | 
17 | C=CC(=O)NCC(=O)NC(CC)CCNC(=O)c1cnc(NCCc2ccncc2)nc1NCCC (stereo not shown) [Compound 17] | < 1 | 
18 | CCCNc1nc(NCCc2ccncc2)ncc1C(=O)NCCC(CC)NC(=O)CNC(=O)/C=C/CN(C)C (stereo not shown) [Compound 18] | < 1 | 
19 | C=CC(=O)N(C)CC(=O)NC(CC)CCNC(=O)c1cnc(NCCc2ccncc2)nc1NCCC (stereo not shown) [Compound 19] | < 1 | 
20 | CCCNc1nc(NCCc2ccncc2)ncc1C(=O)NCCC(CC)NC(=O)CN(C)C(=O)/C=C/CN(C)C (stereo not shown) [Compound 20] | < 1 | 
21 | CCCNc1nc(NCCc2ccncc2)ncc1C(=O)Nc1cccc(NC(=O)CNC(=O)/C=C/CN2CC(C)NC(C)C2)c1 (stereo not shown) [Compound 21] | < 1 | 

Row | Structure (SMILES) | IC50 [1] [nM] | other results
22 | CCCNc1nc(NCCc2ccncc2)ncc1C(=O)Nc1ccc(C)c(NC(=O)CNC(=O)/C=C/CN(C)C)c1 [Compound 22] | < 1 | 
23 | CCCNc1nc(NCCc2ccncc2)ncc1C(=O)NCCCNC(=O)CNC(=O)/C=C/CN(C)C [Compound 23] | < 1 | 
24 | CCCNc1nc(NCCc2ccncc2)ncc1C(=O)Nc1cccc(NC(=O)[C@H](C)NC(=O)/C=C/CN(C)C)c1 [Compound 24] | < 1 | 
25 | CCCNc1nc(Nc2ccc(C(N)=O)cc2)ncc1C(=O)NCCCNC(=O)[C@H](C)N(C)C(=O)/C=C/CN(C)C [Compound 25] | < 1 | 
26 | CCCNc1nc(Nc2ccc(C(N)=O)cc2)ncc1C(=O)NC1CCCC(NC(=O)CN(C)C(=O)/C=C/CN(C)C)C1 (stereo not shown) [Compound 26] | < 1 | 
27 | CCCNc1nc(Nc2ccc(C(N)=O)cc2)ncc1C(=O)Nc1cccc(NC(=O)[C@H](C)N(C)C(=O)/C=C/CN(C)C)c1 [Compound 27] | < 1 | 
28 | CCCNc1nc(Nc2ccc3cnccc3c2)ncc1C(=O)Nc1cccc(NC(=O)[C@H](C)N(C)C(=O)/C=C/CN(C)C)c1 [Compound 28] | < 1 | 
29 | CCCNc1nc(Nc2ccc(C(N)=O)cc2)ncc1C#Cc1cccc(NC(=O)[C@H](C)N(C)C(=O)/C=C/CN(C)C)c1 [Compound 29] | < 1 | 
30 | CCCNc1nc(NCCc2ccncc2)ncc1C(=O)Nc1cccc(NC(=O)[C@H](C)N(C)C(=O)/C=C/CN(C)C)c1 [Compound 30] | < 1 | 
31 | CCCNc1nc(Nc2ccc(C(N)=O)cc2)ncc1C#Cc1cccc(NCCNC(=O)/C=C/CN(C)C)c1 [Compound 31] | 1 to 10 | 
32 | CCCNc1nc(Nc2ccc(C(N)=O)cc2)ncc1C(=O)Nc1cccc(NC(=O)[C@H](C)N(C)C(=O)/C=C/CN2CC(O)C2)c1 [Compound 32] | < 1 | 
33 | CCCNc1nc(Nc2cccc(C#N)c2)ncc1C#CCCCNC(=O)[C@H](C)N(C)C(=O)/C=C/CN(C)C [Compound 33] | 1 to 10 | 
34 | CCCNc1nc(Nc2cccc(F)c2)ncc1C#CCCCNC(=O)[C@H](C)N(C)C(=O)/C=C/CN(C)C [Compound 34] | < 1 | 
35 | CCCNc1nc(NCCc2ccncc2)ncc1C#Cc1cccc(NC(=O)[C@H](C)N(C)C(=O)/C=C/CN(C)C)c1 [Compound 35] | < 1 | 
36 | C[C@@H](C(=O)Nc1cccc(C#Cc2cnc(NCCc3ccncc3)nc2N2CCOCC2)c1)N(C)C(=O)/C=C/CN(C)C [Compound 36] | < 1 | 
37 | CCCN(C)c1nc(NCCc2ccncc2)ncc1C#Cc1cccc(NC(=O)[C@H](C)N(C)C(=O)/C=C/CN(C)C)c1 [Compound 37] | < 1 | 
38 | CCCNc1nc(Nc2cccc(F)c2)ncc1C#C[C@H]1C[C@@H](NC(=O)[C@H](C)N(C)C(=O)/C=C/CN(C)C)C1 [Compound 39] | < 1 | GI50 [2, 11]: 1 to 10 nM; GI50 [3, 12]: 1 to 10 nM; GI50 [4, 13]: < 1 nM; GI50 ([5]; FLT3/FL, 2 days with compound): < 1 nM; GI50 [6, 14]: 1 to 10 nM; GI50 [7, 15]: 1 to 10 nM; GI50 [8, 16]: < 1 nM; GI50 [9, 17]: < 1 nM; GI50 [10, 18]: 1 to 10 nM
39 | C[C@@H](C(=O)N[C@H]1C[C@@H](C#Cc2cnc(Nc3ccc(F)cc3)nc2NC2CC2)C1)N(C)C(=O)/C=C/CN(C)C [Compound 40] | < 1 | GI50 [2, 11]: < 1 nM; GI50 [3, 12]: < 1 nM; GI50 [4, 13]: < 1 nM; GI50 ([5]; FLT3/FL, 2 days with compound): < 1 nM; GI50 [6, 14]: 1 to 10 nM; GI50 [7, 15]: 1 to 10 nM; GI50 [8, 16]: < 1 nM; GI50 [9, 17]: < 1 nM; GI50 [10, 18]: 1 to 10 nM
40 | CNc1nc(Nc2ccc(F)cc2)ncc1C#C[C@H]1C[C@@H](NC(=O)[C@H](C)N(C)C(=O)/C=C/CN(C)C)C1 [Compound 41] | < 1 | GI50 [2, 11]: 1 to 10 nM; GI50 [3, 12]: 1 to 10 nM; GI50 [4, 13]: 1 to 10 nM; GI50 ([5]; FLT3/FL, 2 days with compound): < 1 nM; GI50 [6, 14]: 1 to 10 nM; GI50 [7, 15]: 1 to 10 nM; GI50 [8, 16]: 1 to 10 nM; GI50 [9, 17]: 1 to 10 nM; GI50 [10, 18]: 1 to 10 nM
41 | CNC(=O)c1cc(Oc2ccc(NC(=O)Nc3ccc(Cl)c(C(F)(F)F)c3)cc2)ccn1 [Reference Compound 2, Sorafenib, reference compound] |  | GI50 [2]: > 100 nM; GI50 [3]: > 100 nM; GI50 [4]: 10 to 100 nM; GI50 [5]: 10 to 100 nM; GI50 [6]: > 100 nM; GI50 [7]: > 100 nM; GI50 [8]: 10 to 100 nM; GI50 [9]: 10 to 100 nM; GI50 [10]: > 100 nM
